Here are results for three compounds from paper PMC9413739, “Tri- and Pentacyclic Azaphenothiazine as Pro-Apoptotic Agents in Lung Carcinoma with a Protective Potential to Healthy Cell Lines” (Molecules, 2022).

Several values for one entry are separate records, joined by “and”; a condition that tells them apart may be missing. Identical values can stand only once.

The subject of series [1] is NHDF. Put plainly: MTT viability assay, NHDF. Type of series: cell-based. Conditions: Homo sapiens, 72 h of incubation, mean of three experiments ± SD. The procedure:
(§1) A standard anticancer drug, such as doxorubicin, was simultaneously used at the same concentrations range: 100, 50, 25, 12.5, 6.25, 3.15, 1.56 µM.
(§2) Biological experiments were conducted on a panel of cancer cell lines, adenocarcinoma human alveolar basal epithelial cells (A549), and human non-small cell lung carcinoma cell line (H1299). In order to determine the potential side effects of treatments, research was performed simultaneously on the human bronchial epithelial cells (BEAS-2B) and normal human dermal fibroblasts (NHDF); all cells received were received from the ATCC collections (Manassas, VA, USA). Cells were grown in DMEM F-12 medium (PAA, Warsaw, Poland) supplemented with 10% (v/v) heat-inactivated FBS (Eurx, Gdańsk, Poland) and 100 units/mL penicillin and 100 μg/mL streptomycin (Sigma-Aldrich, Darmstadt, Germany) at 37 °C in a humidified atmosphere with 5% CO2 [23, 27, 29].
(§3) Examination of cytotoxicity using MTT assay is the most convenient and fastest method for screening of cytotoxic action of the drugs. MTT assay is a colorimetric method for evaluation of cell viability based on mitochondrial dehydrogenase enzyme activity. The survival rate of the cells was calculated relative to the control cells, grown in standard conditions. Using this assay, IC50 values were calculated for each cell line treated with standard compounds and drugs. For […] assay, cells were seeded in 96-well plates at 1 × 10^4 cells/well in 0.2 mL completed medium 24 h before drug treatment. In the next step, cells were incubated for 72 h with the compounds (doses: 100; 50; 25; 12.5; 6.25; 3.15 and 1.56 µM) and then were washed three times with PBS (PAA, Laboratories GmbH, Cölbe, Germany). […] The levels of absorbance were measured at a wavelength of λ = 570 nm using a microplate spectrophotometer (Epoch; BioTek, Winooski, VT, USA) and expressed as a % of the untreated control, named the survival fraction [SF] […]

Series [2] concerns BEAS-2B. Put plainly: MTT viability assay, BEAS-2B. Type of series: cell-based. Conditions: Homo sapiens, 72 h of incubation, mean of three experiments ± SD. On the procedure: as §1, §2, §3
Background: Tetrazolium assays rely on reduction of a dye to a coloured formazan, in cell work by metabolically active cells.

Series [3] deals with A549. Put plainly: MTT viability assay, A549. Type of series: cell-based. Conditions: Homo sapiens, A549, 72 h of incubation, mean of three experiments ± SD. On the procedure:
as §1, §2, §3

Series [4] concerns H1299. The experiment in a line: MTT viability assay, H1299. Conditions: Homo sapiens, NCI-H1299, H1299, 72 h of incubation, mean of three experiments ± SD. The class given is cell-based. On the procedure: as §1, §2, §3
The test system of series [5] is human lung carcinoma A549 and non-small lung carcinoma H1299. Put plainly: MTT viability assay, summary over lung carcinoma lines. Conditions: range over DPT-1 and DPT-2 in A549 and H1299. The class given is cell-based.
Excerpt: DPT-1 and DPT-2 initiated a biological response in the investigated cancer models with a different mechanism and at a different rate. Based on these findings, it can be concluded that DPT-1 and DPT-2 have potential as chemotherapeutic agents.
as §3

Series [6] has as its system A549 cells. The experiment in a line: Cell cycle analysis via flow cytometry, A549. As to conditions: A549, 50 µM, 72 h. Type of series: cell-based, human. On the procedure: A lowered viability, followed by the MTT assay, could be a perfect indicator of the anticancer potential of drugs. However, this procedure measures the mitochondrial activity of the enzymatic complex. The real cytotoxicity against the antiproliferative action of drugs could be distinguished using the next step procedure, a cytometric cell cycle distribution, compared to the untreated controls. For that reason, the cell cycle was measured, followed by 72 h of incubation with DPT-1 and DPT-2. High doses of phenothiazines (50 µM) arrested the cell cycle at different phases, dependent on the cancer cell line. […] The phenomenon of sub-G1 phase reduction (lowered necrotic/apoptotic and general dead cells fraction), in comparison to the untreated control, could be explained by the cytostatic potential of phenothiazines. […] The MTT estimations of cells viability, calculated from the lowered absorbance, resulted from the antiproliferative and cytostatic role of DPT-1 and DPT-2 in the A549 cell line for S and G2/M cell cycle phases.
Many drugs work by inhibiting cell proliferation and causing cell cycle blockage. Using flow cytometry, the impact of new compounds on the cell cycle were determined. Cells incubated with compound were also analyzed for cellular death pathways, apoptosis induction, followed by Annexin-V assay. […]
(In general: Flow cytometry measures light scatter and fluorescence of single cells or particles in a stream.)

The subject of series [7] is H1299 cells. The experiment in a line: Cell cycle analysis via flow cytometry, H1299. Type of series: cell-based, human. Conditions: H1299, 50 µM, 72 h. On the procedure:
(§4) Many drugs work by inhibiting cell proliferation and causing cell cycle blockage. Using flow cytometry, the impact of new compounds on the cell cycle were determined. Cells incubated with compound were also analyzed for cellular death pathways, apoptosis induction, followed by Annexin-V assay. Annexin-V is a protein that binds phosphatidylserine and allows early detection of apoptosis; additionally, iodium propide staining distinguishes it from necrosis. For apoptosis and cell cycle assays the cell cultures were plated in 6-well plates at a confluence of 1 × 10^5 in 2 mL of completed fresh DMEM-F12 medium, 24 h before drugs addition. An Aria III flow cytometer (Becton Dickinson; Franklin Lakes, NJ, USA) was used. The flow cytometry analysis was done on a free Flowing Software 2.5.1 program (by Perttu Terho, the Cell Imaging and Cytometry Core, Turku Bioscience Centre, Turku, Finland, with the support of Biocenter Finland).

For series [8], the system named is A549 cells. Put plainly: Annexin-V apoptosis assay with PI staining, A549. The class given is cell-based, human. Conditions: 72 h; for type of cellular death at lower doses: A549, 0.78–12.5 µM; for type of cellular death at higher doses: A549, 25–100 µM. On the procedure: (§5) Followed by Annexin-V apoptosis assay after 72 h of incubation with DPT-1 and DPT-2 at a dose of 50 µM, the type of cellular death is possible to determine (Figure 6 and Figure 7). […] After 72 h of incubation of cells in both controls, some of the early and late apoptotic cells were observable, without necrotic ones.
as §4

In series [9] the test system is H1299 cells. Put plainly: Annexin-V apoptosis assay with PI staining, H1299. Type of series: cell-based, human. As to conditions: H1299, 50 µM, 72 h. The procedure: as §5, §4
Series [10] deals with BEAS-2B cells. The experiment in a line: Live Cell Analyzer microscopic observation, BEAS-2B. The class given is cell-based, human. As to conditions: 72 h; for survival fraction in comparison to the untreated controls: 50 µM, images; for morphological observation: 100 µM. An excerpt: (§6) The cells stayed mostly unattached and floating with some shrunken, which indicates a late stage of apoptosis and necrosis. Using cancer cell lines A549 and H1299, the cellular apoptotic and necrotic death was confirmed, followed by cell cycle cytometric analysis for the sub-G1 fraction (please compare Figure 4 and Figure 5). […] Such observations additionally explained the results of Annexin-V apoptosis assays, where some of the cells, mainly carcinomas, presented an early apoptosis fraction (Figure 6, Figure 7 and Figure 8).
(§7) Microscopic observation and images acquisition with Live Cell Analyzer (JuLI™ Br; NanoEnTek Inc., Seoul, Korea) was used to directly observe on-plate confluence, density, and cell viability and images acquisitions.

Series [11] concerns A549 cells. The experiment in a line: Live Cell Analyzer microscopic observation, A549. Type of series: cell-based, human. As to conditions: 72 h; for survival fraction in comparison to the untreated controls: A549, 50 µM, images; for morphological observation: A549, 100 µM.
Excerpt: as §6, §7

Series [12] concerns glioblastoma SNB-19, melanoma C-32, and breast cancer MCF-7 cell lines. Set-up: method as in PMID 26950280. As to conditions: SNB-19, C-32 and MCF-7 cell lines; cited from earlier work.
The subject of series [13] is normal fibroblast HFF-1 cell line. Set-up: method as in PMID 26950280. As to conditions: cited from earlier work.
In series [14] the test system is A2780 ovarian cancer cells. Set-up: method as in PMID 29123378. Conditions: A2780, dose-dependent inhibition; cited from earlier work.
Series [15] deals with normal kidney HEK293 cells. Also noted: method as in PMID 29123378. Conditions: cited from earlier work.
The test system of series [16] is normal heart H9C2 cells. Also noted: method as in PMID 29123378. As to conditions: cited from earlier work.
In series [17] the test system is glioblastoma SNB-19, colorectal carcinoma Caco-2, breast cancer MDA-MB-231, and lung cancer A549 cell lines. Also noted: method as in PMID 30981160. As to conditions: range over SNB-19, Caco-2, MDA-MB-231 and A549; cited from earlier work.
Series [18] relates to normal human dermal fibroblasts NHDF. Also noted: method as in PMID 30981160. Conditions: cited from earlier work.

As usually defined, the IC50 is the point on the concentration scale where inhibition reaches its midpoint. Take `c1cnc2c(c1)Nc1ccncc1S2` [DPT-1, 10H-3,6-diazaphenothiazine]: the IC50 in series [1] was 2.246 ± 0.01 µM; in [2], 2.468 ± 0.01 µM; in series [3], 1.526 ± 0.004 µM; in series [4], 2.515 ± 0.005 µM; in [5], 1.52 to 12.9 µM; in [12], 0.46 µg/mL and 0.72 µg/mL. In [14], the IC50 is 0.62 µM. In series [6], the cell cycle arrest result is “S and G2/M arrest”. For the same compound, the cell cycle effect result in [7] is “cell cycle is stopped in the G0/G1-phase”. Further, the “cells apoptotic (late apoptotic fraction, Annexin-V+/PI+)” value in series [8] (A549, 50 µM) is recorded as about 90%; in [9], about 90%. Moreover, the “type of cellular death” value is “pro-apoptotic activity” in series [8] (A549, 50 µM) and “pro-apoptotic activity” in [9]. The “type of cellular death at lower doses” value in series [8] was “necrosis is visible”. Also, the “type of cellular death at higher doses” value in [8] is recorded as “induced cellular death via an apoptosis pathway”. The “survival fraction in comparison to the untreated controls” value in series [10] and in [11] was 5–30% each time. In addition, the morphological observation entry in series [10] and in series [11] was “typical morphological changes for cellular death” each time. Besides, the “action against normal cells” value in series [13] is given as “non-toxic action”. In addition, the “cytotoxicity compared with A2780” value in series [15] and in [16] was “significantly less cytotoxicity” in each case.
As for `CN(C)CCCN1c2cnc3ccccc3c2Sc2cc3ccccc3nc21` [DPT-2, 7-(3′-dimethylaminopropyl)diquinothiazine], the 50% inhibitory concentration (IC50) in [1] was 18.77 ± 0.038 µM; in [2], 11.26 ± 0.038 µM; in series [3], 3.45 ± 0.054 µM; in series [4], 12.89 ± 0.013 µM; in series [5], 1.52 to 12.9 µM; in series [17], 0.3 to 3.44 µM. Also, in [6], the cell cycle arrest entry was “S and G2/M arrest”. The cell cycle effect entry in series [7] is “strong cytotoxic effect”. Also, the “tested population necrotic (Annexin-V−/PI+)” value in series [8] (A549, 50 µM) is on record as “circa 30%”; in series [9], “circa 30%”. Further, the “type of cellular death” value in [8] (A549, 50 µM) is listed as “induced apoptosis, as well as necrosis”; in series [9] it was “induced apoptosis, as well as necrosis”. Also, the “type of cellular death at lower doses” value in [8] is recorded as “induced early apoptosis”. Also, in [8], the “type of cellular death at higher doses” value is reported as “induced toxic, necrotic death”. Further, the “survival fraction in comparison to the untreated controls” value in series [10] and in [11] was 5–30% each time. The morphological observation result in series [10] and in [11] was “typical morphological changes for cellular death” throughout. For the same compound, the “cytotoxicity against normal cells” value in series [18] was “low cytotoxicity”.
In the case of `COc1cccc2c1C(=O)c1c(O)c3c(c(O)c1C2=O)C[C@@](O)(C(=O)CO)C[C@@H]3O[C@H]1C[C@H](N)[C@H](O)[C@H](C)O1` [doxorubicin, reference compound], the IC50 was over 100 µM in series [1], under 1.56 µM in [2], 5.289 ± 0.004 µM in series [3] and 7.749 ± 0.004 µM in series [4].
